Measurements from paper PMC7314595 (Angewandte Chemie (International ed. in English), 2016).
“Also recorded” adds a separate entry of the source.

Tests used:
Chrom logD = type: physicochemical; conditions: pH 7.4
ATAD2B bromodomain = target: T1, ATAD2B bromodomain (Homo sapiens, UniProt Q9ULI0); experiment: ATAD2B TR-FRET; type: binding
T1 sequence (Q9ULI0 951-1066 limits assumed): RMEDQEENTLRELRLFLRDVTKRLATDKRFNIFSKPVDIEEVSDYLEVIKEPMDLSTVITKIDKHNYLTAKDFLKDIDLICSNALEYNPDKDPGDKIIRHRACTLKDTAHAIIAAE

tandem BRD4 bromodomains = tandem BRD4 bromodomains (Homo sapiens, UniProt O60885); experiment: BRD4 tandem isothermal titration calorimetry; type: binding
BRD2 BD1 = BRD2 BD1 (Homo sapiens, UniProt P25440); experiment: BRD2 BD1 TR-FRET; type: binding
Chain of BRD2 BD1 (P25440 74-180 limits assumed): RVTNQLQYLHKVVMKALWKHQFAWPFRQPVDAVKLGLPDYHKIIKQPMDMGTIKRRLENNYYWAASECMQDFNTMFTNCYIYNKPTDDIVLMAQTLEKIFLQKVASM

CLND solubility = type: physicochemical
[1] = system: internal GSK panel of 40 targets considered as potential liabilities; experiment: Internal GSK panel of 40 liability targets; conditions: data not shown
[2] = target: T2, ATAD2 bromodomain / histone H3.3 (Homo sapiens, UniProt Q6PL18); experiment: Cellular NanoBRET displacement, ATAD2 bromodomain from histone H3.3; type: cell-based; conditions: NanoBRET (Promega)
T2 sequence (Q6PL18 980-1092 limits assumed): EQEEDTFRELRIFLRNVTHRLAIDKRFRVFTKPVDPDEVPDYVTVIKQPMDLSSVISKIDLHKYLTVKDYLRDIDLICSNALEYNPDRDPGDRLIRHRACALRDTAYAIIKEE

[3] = target: T3, full-length ATAD2 / histone H3.3 (Homo sapiens, UniProt Q6PL18); experiment: Cellular NanoBRET displacement, full-length ATAD2 from histone H3.3; type: cell-based
T3 sequence (Q6PL18 1-1390): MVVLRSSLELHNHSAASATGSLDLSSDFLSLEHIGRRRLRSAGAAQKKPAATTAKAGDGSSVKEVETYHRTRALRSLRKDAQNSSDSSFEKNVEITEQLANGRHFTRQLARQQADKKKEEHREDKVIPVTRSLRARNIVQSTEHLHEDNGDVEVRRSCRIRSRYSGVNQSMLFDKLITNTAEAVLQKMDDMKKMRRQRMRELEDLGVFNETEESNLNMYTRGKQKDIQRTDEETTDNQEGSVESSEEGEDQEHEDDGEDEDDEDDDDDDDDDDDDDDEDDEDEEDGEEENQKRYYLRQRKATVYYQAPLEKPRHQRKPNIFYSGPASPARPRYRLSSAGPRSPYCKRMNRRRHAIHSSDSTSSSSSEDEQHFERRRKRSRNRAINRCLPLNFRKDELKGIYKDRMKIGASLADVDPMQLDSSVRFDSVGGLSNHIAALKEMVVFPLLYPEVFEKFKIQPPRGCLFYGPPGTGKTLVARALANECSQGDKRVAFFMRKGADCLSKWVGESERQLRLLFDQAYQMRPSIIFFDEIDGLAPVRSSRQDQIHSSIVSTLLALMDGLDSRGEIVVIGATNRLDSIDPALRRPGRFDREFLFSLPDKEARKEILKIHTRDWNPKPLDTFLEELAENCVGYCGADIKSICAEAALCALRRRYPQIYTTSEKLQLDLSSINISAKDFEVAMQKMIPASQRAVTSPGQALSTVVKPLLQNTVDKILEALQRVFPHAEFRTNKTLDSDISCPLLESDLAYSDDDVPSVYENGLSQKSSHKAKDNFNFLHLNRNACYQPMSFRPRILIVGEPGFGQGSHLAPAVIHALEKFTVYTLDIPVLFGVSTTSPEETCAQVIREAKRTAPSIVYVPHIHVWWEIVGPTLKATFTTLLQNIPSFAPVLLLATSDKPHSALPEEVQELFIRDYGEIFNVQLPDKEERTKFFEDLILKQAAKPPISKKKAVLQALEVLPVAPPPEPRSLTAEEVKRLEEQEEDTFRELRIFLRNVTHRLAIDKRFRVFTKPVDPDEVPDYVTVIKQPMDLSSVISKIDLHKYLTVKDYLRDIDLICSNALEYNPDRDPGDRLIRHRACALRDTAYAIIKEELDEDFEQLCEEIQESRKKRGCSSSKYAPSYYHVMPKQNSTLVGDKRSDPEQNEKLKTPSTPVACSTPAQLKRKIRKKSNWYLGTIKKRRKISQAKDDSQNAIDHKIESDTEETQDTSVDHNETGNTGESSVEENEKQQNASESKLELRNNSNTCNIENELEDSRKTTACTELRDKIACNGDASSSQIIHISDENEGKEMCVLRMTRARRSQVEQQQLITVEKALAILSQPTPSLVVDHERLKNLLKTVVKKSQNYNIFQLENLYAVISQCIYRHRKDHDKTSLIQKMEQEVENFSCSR

colony formation = experiment: Colony formation; type: cell-based
[4] = system: genes involved in cell cycle and division; experiment: Expression of genes involved in cell cycle and division; type: cell-based

chromatographic logD (Chrom logD): 3.2 | IC50 (ATAD2B bromodomain): 20 nM | Interaction with tandem BRD4 bromodomains by ITC (tandem BRD4 bromodomains): no interaction detected | IC50 (BRD2 BD1): ≥ 39800 nM | solubility (CLND solubility): > 439 µM | Off-target activity against internal GSK panel of 40 targets [1]: inactive
SMILES: CO[C@H]1CNC[C@@H](OCC2CCC(F)(F)CC2)[C@@H]1Nc1ncc(-c2cncc(C)c2)c2cc(C)c(=O)[nH]c12 [Compound 16]
Displacement of labelled ATAD2 bromodomain from histone H3.3 [2]: dose-dependent displacement; also recorded: displaces the ATAD2 bromodomain construct | Displacement of full-length ATAD2 from histone H3.3 [3]: ineffective; also recorded: does not displace full-length ATAD2 | Effects on colony formation (colony formation): only seen at high compound concentrations | Inhibition of genes involved in cell cycle and division [4]: only seen at high compound concentrations
